Drawing on BindingDB's records for doi:10.1021/jm030493t (Johnson & Johnson Pharmaceutical Research & Development, 2004), this text covers IC50 for two compounds.

This assay can be described thus: Compound was tested for inhibition of gel-filtered platelet (GFP) aggregation induced by alpha-thrombin.

The IC50 is the midpoint of a concentration-inhibition curve. Read a low IC50 as higher potency.

On to `CN[C@H](Cc1ccccc1)C(=O)N1CCCC1C(=O)N[C@H](C=O)CCCNC(=N)N` (stereo partly drawn) [(S)-1-((R)-2-Methylamino-3-phenyl-propionyl)-pyrrolidine-2-carboxylic acid ((S)-1-formyl-4-guanidino-butyl)-amide], for which it took 83 nM to reach half-maximal inhibition (IC50).

In the case of `CN[C@H](Cc1ccccc1)C(=O)N1CCC[C@H]1C(=O)N[C@@H](CCCN=C(N)N)C(=O)c1nc2ccccc2s1` [RWJ-50353], it took 32 nM to reach half-maximal inhibition (IC50).
